From patent publication US7326700B2, “Cyclohexenyl phenyl carboxamides tocolytic oxytocin receptor antagonists” (Wyeth, priority 2001, dated 2008)

Assays:
[1] = target: T1, human vasopressin V1a receptor subtype (Homo sapiens, UniProt P37288); assay: Vasopressin binding in CHO cell membranes expressing human vasopressin V1a subtype receptors ([3H]Manning ligand radioligand binding)
T1 construct: host or cells: CHO cells, stably transfected (pZeoSV vector for the Thibonnier line)
Source text: Chinese hamster ovary cells (CHO cells) stably transfected with the human vasopressin V1a subtype receptors were either obtained from Biosignal Inc., 1744 rue Williams, Montreal, Quebec, Canada or obtained from M. Thibonnier, Case Western Reserve University School of Medicine, Cleveland, Ohio.
CHO cells transfected with the human vasopressin V1a subtype receptors obtained from M. Thibonnier (pZeoSV vector) are allowed to grow to confluency (approx. >90%) in T-150 flasks under sterile conditions, in a cell culture medium consisting of F-12 Nutrient Mixture (HAM) with L-glutamine (Gibco Cat. #11765-054) containing 15 mM HEPES (Gibco Cat. #15630-080), 1% antibiotic/antimycotic (add 5 mL 100×, Gibco Cat. #15240-062 per 500 mL F-12), 250 μg/mL Zeocin (add 1.25 mL of 100 mg/mL Invitrogen R-250-01 per 500 mL F-12) and 10% Fetal Bovine Serum (Qualified, heat inactivated, Gibco Cat. #16140-063). The medium is removed by aspiration and the cells are washed with 10 mL of Hank's Balanced Salt solution (Gibco Cat. #14175-095). The salt solution is removed by aspiration and the cells are trypsinized with 5 mL of trypsin-EDTA (0.05% trypsin, 0.53 mM EDTA-4Na, Gibco Cat. #25300-070) for 1 min. The trypsin is removed by aspiration and the cells dislodged by tapping. Cell Culture medium (eg, 30 mL for 1:30 split) is immediately added and mixed well to inactivate trypsin. 1 mL of detached cells is added to new culture flasks containing fresh cell culture medium (eg, into 25 mL per T-150 flask), and mixed gently. The cells are incubated at 37° C. in 5% CO2. The medium is changed at 3 to 4 days interval (or as appropriate). The cells grow to confluency (approx. >75%-95%) within 7-8 days. All steps are done under sterile conditions.
The cells are washed twice gently with Hank's Balanced Salt solution (e.g,. use 10 mL per T-150 flask). The excess is removed and the cells are bathed for 15-30 min. in an enzyme-free Cell Dissociation Buffer (e.g. use 8 mL Hank's Based, Gibco Cat. #13150-016 per T-150 flask) until the cells are loosened. The contents are transferred to centrifuge tubes (50 mL) kept in an ice bath. All subsequent steps are done at 4° C. The tubes are centrifuged at 300×g for 15 min (1380 rpm on SORVAL, Model RT6000D, using the rotor for 50 mL tubes). The supernatant is discarded and the cells suspended in homogeneizing buffer (10 mM Tris-HCl containing 0.25 M sucrose and 1 mM EDTA, pH 7.4) ensuring that the volume of the buffer is about ten times the volume of the cell pellet. The cells are pooled into a centrifuge tube (50 mL) and homogenized with Polytron at setting 6 for 10 sec. The homogenate is transferred into a Potter-Elvjehm homogenizer and homogenized with 3 strokes. The homogenate is centrifuged at 1500×g for 10 min at 4° C. (3100 rpm using SORVAL, model RT6000D, using the rotor for 50 mL tubes). The pellet is discarded. The supernatant is centrifuged at 100,000×g for 60 min. at 4° C. (Beckman L8-80M ultracentrifuge; spin at 37,500 rpm with rotor type 70 Ti for 50 mL tubes; 38,000 rpm with type 80Ti for 15 mL tubes; or 35,800 rpm with rotor type 45Ti). The supernantant is discarded and the pellet suspended in 3 to 4 mL of Tris buffer (50 mM TRIS-HCl, pH 7.4). The protein content is estimated by the Bradford or Lowry method. The volume of the membrane suspension is adjusted with the membrane buffer (50 mM Tris-HCl containing 0.1% BSA and 0.1 mM PMSF) to give 3.0 mg/mL (or as appropriate) of protein. The membranes are aliquoted and stored at −70° C.
In wells of a 96-well format microtiter plate, is added 90, 110 or 130 μL (to make up a final volume of 200 μL) of assay buffer containing 50 mM of Tris-HCl (pH 7.4), BSA (heat inactivated, protease-free), […], 1 mg % aprotinin, 1 mg % leupeptin, 2 mg % 1,10-phenanthroline, 10 mg % trypsin inhibitor, and 0.1 mM PMSF. The inhibitors are added on the day of the experiment. […]

T1 sequence (P37288 whole entry): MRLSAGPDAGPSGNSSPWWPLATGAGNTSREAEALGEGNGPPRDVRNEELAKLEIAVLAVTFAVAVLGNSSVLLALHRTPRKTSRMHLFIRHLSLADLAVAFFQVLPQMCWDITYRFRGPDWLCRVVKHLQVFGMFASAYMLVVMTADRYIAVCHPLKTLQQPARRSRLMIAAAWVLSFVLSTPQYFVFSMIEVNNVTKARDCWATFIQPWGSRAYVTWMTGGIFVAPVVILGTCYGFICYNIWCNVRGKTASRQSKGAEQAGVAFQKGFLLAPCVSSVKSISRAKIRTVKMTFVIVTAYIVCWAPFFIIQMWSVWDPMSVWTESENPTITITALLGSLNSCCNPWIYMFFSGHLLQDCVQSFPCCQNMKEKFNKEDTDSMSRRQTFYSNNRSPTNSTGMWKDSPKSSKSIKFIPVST

Row | SMILES | melting point [°C] | V1a % inhibition @ 100 nM ([1]; 100 nM) [%] | also measured
1 | COc1cc(C2=CCCCC2)c(Cl)cc1C(=O)N1Cc2ccc(C(=O)N3CCC[C@H]3CN3CCCC3)n2Cc2ccccc21 [Example 1, 4-Chloro-5-cyclohex-1-en-1-yl-2-[(3-{[(2S)-2-(pyrrolidin-1-ylmethyl)pyrrolidin-1-yl]carbonyl}-5H-pyrrolo [2,1-c][1,4]benzodiazepin-10(11H)-yl)carbonyl]phenyl methyl ether] | 109 to 121 | – | IC50 ([1]; value in parentheses): 1280 nM
2 | CC1=C(c2ccc(C(=O)N3Cc4ccc(C(=O)N5CCN(C)CC5)n4Cc4ccccc43)cc2C)CCC[C@H]1O [Example 11, [4-((3R)-3-Hydroxy-2-methyl-cyclohex-1-en-1-yl)-3-methyl-phenyl]-[3-(4-methyl-piperazine-1-carbonyl)-10,11-dihydro-5H-pyrrolo [2,1-c][1,4]benzodiazepin-10-yl]-methanone] | 102 to 153 | – | inhibition at 0.1 µM ([1]; 100 nM): 26%
3 | Cc1cc(C(=O)N2Cc3ccc(C(=O)NCCN4CCCCC4)n3Cc3ccccc32)ccc1C1=CCCCC1 [Example 20, 10-[4-(1-Cyclohex-1-en-1-yl)-3-methylbenzoyl]-N-[2-(1-piperidinyl)ethyl]-10,11-dihydro-5H-pyrrolo[2,1-c][1,4]benzodiazepine-3-carboxamide] | – | 23 | –

Continued, in another order:

Row | melting point [°C] | V1a % inhibition @ 100 nM ([1]; 100 nM) [%] | SMILES | also measured
4 | – | 62 | Cc1cc(C(=O)N2Cc3ccc(C(=O)N4CC[C@@H](N(C)C)C4)n3Cc3ccccc32)ccc1C1=CCCCC1 [Example 27, {10-[4-(1-Cyclohex-1-en-1-yl)-3-methylbenzoyl]-10,11-dihydro-5H-pyrrolo[2,1-c][1,4]benzodiazepin-3-yl}[(3R)-3-(dimethylamino)pyrrolidinyl]methanone] | –
5 | – | 34 | Cc1cc(C(=O)N2Cc3ccc(C(=O)N4CCN(CCN(C)C)CC4)n3Cc3ccccc32)ccc1C1=CCCCC1 [Example 22, {10-[4-(1-Cyclohex-1-en-1-yl)-3-methylbenzoyl]-10,11-dihydro-5H-pyrrolo[2,1-c][1,4]benzodiazepin-3-yl}{4-[2-(dimethylamino)ethyl]-1-piperazinyl}methanone] | –
6 | – | 38 | Cc1cc(C(=O)N2Cc3ccc(C(=O)N4CCC[C@H]4CN4CCCC4)n3Cc3ccccc32)ccc1C1=CCCCC1 [Example 26, {10-[4-(1-Cyclohex-1-en-1-yl)-3-methylbenzoyl]-10,11-dihydro-5H-pyrrolo[2,1-c][1,4]benzodiazepin-3-yl}[(2S)-2-(1-pyrrolidinylmethyl)pyrrolidinyl]methanone] | –
